Measurements published in patent US8709406B2, “Prevention and treatment of oxidative stress disorders by gluthathione and phase II detoxification enzymes” (Brassica Foundation for ChemoProtection Research, priority 2001, dated 2014).

Columns and labels:
[1] = test system: glucose 6-phosphate dehydrogenase; conditions: ARPE-19; sulforaphane 0.625 and 2.5 μM 24 h, then medium without inducer
Experimental: (§1) Cells were lysed by addition of a digitonin solution (0.8 mg/ml digitonin in 2 mM EDTA, pH 7.8), incubated at 37° C. for 20 min, gently shaken for 20 min at 25° C., and centrifuged at 1,500×g for 20 min at 4° C.
(§2) All measurements were made in 96-well microtiter plates at 25° C., and reaction rates were monitored with a microtiter plate reader. The QR activities of supernatant fractions were determined by procedures developed in our laboratory (Fahey, J. W., Zhang, Y. & Talalay, P. (1997) Proc. Natl. Acad. Sci. USA 94, 10367-10372; Prochaska, H. J., Santamaria, A. B. & Talalay, P. (1992) Proc. Natl. Acad. Sci. USA 89, 2394-2398.). Specific activities were obtained by relating the reaction rates to protein concentrations determined with the bicinchoninic acid reagent (Smith, P. K., Krohn, R. I., Hermanson, G. T., Mallia, A. K., Gratner, F. H., Provenzano, M. D., Fujimoto, E. K., Goeke, N. M., Olson, B. J. & Klenk, D. C. (1985) Anal. Biochem. 150, 76-85). […] Glutathione reductase activity was assayed by mixing 50 μl of cell lysate with 25 μl of 1 mM NADPH, 25 μl of GSSG (20 mg/ml), and 150 μl of 50 mM sodium phosphate, pH 7.5. Initial reaction rates were obtained at 340 nm (Carlberg, I. & Mannervik, B. (1985) Methods Enzymol. 113, 484-490).

[2] = test system: quinone reductase; conditions: ARPE-19
Experimental: as §1, §2

[3] = test system: glutathione reductase; conditions: ARPE-19; sulforaphane 0.625 and 2.5 μM 24 h, then medium without inducer
Experimental: as §1, §2

[4] = test system: Retina Pigment Epithelium Cell; experiment: Photooxidative damage by all-trans-retinal and 365 nm light, protection by sulforaphane (cell survival); type: cell-based, human
Experimental: There is accumulating evidence that chronic exposure to sunlight plays a role in some degenerative diseases, for instance, age-related macular degeneration (AMD). We have, therefore, carried out an experiment of protection of human RPE cells against photooxidative damage mediated by all-trans-retinal, which exists in human retina and is a critical component of the visual cycle.
Cell viability was determined by spectroscopic measurement of the reduction of MTT (Carmichael, J., DeGraff, W. G., Gazdar, A. F., Minna, J. D. & Mitchell, J. B. (1987) Cancer Res. 47, 936-942). The culture media were discarded after the designated incubation periods, the cells were washed three times with PBS by use of a microtiter plate washer (Ultrawash Plus, Dynex Technologies, Chantilly, Va.). Each well then received 150 μl of an MTT solution (0.5 mg/ml) in serum-free medium. The plates were incubated for 2 h at 37° C., the MTT solution was discarded, 100 μl of DMSO were added to each well, and the plates were shaken at 200 rpm on an orbital shaker for 5 min. The absorbances of the wells were determined at 555 nm with a microtiter plate reader (Spectra Max Plus, Molecular Devices, Sunnyvale, Calif.). The absorbance of reduced MIT was then compared at each inducer and oxidant concentration to that of untreated control cells that received only the vehicle in which sulforaphane (DMSO) and menadione (DMSO or PBS) were dissolved. In each experiment three identical 96-well plates were used and the means of the absorbance values, the standard deviations of these means, and their coefficients of variation were calculated.
To examine the protective effect of sulforaphane against photooxidative damage mediated by all-trans-retinal and light exposure, the cells were treated with 0-100 μM of all-trans-retinal for 2 hours and light exposure at 365 nm for 20 min after incubation with 0-5 μM of sulforaphane for 24 hours.

C[S+]([O-])CCCCN=C=S (stereo not shown) [Sulforaphane]
specific activity of glucose 6-phosphate dehydrogenase after removal of sulforaphane [1]: continued to rise for 48 h after removal of sulforaphane
specific activities of QR in cytosols ([2]; sulforaphane 0-5.0 μM 24 h): rose with exposure to increasing concentrations of sulforaphane
specific activity of QR after removal of sulforaphane ([2]; sulforaphane 0.625 and 2.5 μM 24 h, then medium without inducer): continued to rise for 48 h after removal of sulforaphane
specific activity of glutathione reductase after removal of sulforaphane [3]: continued to rise for 48 h after removal of sulforaphane
Survival ([4]; 365 nm light, all-trans-retinal 0 μM, sulforaphane 1.25 μM 24 h): 100.0%
Survival ([4]; 365 nm light, all-trans-retinal 0 μM, sulforaphane 2.50 μM 24 h): 100.6%
Survival ([4]; 365 nm light, all-trans-retinal 0 μM, sulforaphane 5.00 μM 24 h): 100.4%
Survival ([4]; 365 nm light, all-trans-retinal 12.5 μM, sulforaphane 1.25 μM 24 h): 95.4%
Survival ([4]; 365 nm light, all-trans-retinal 12.5 μM, sulforaphane 2.50 μM 24 h): 96.5%
Survival ([4]; 365 nm light, all-trans-retinal 12.5 μM, sulforaphane 5.00 μM 24 h): 103.4%
Survival ([4]; 365 nm light, all-trans-retinal 25 μM, sulforaphane 1.25 μM 24 h): 54.4%
Survival ([4]; 365 nm light, all-trans-retinal 25 μM, sulforaphane 2.50 μM 24 h): 63.8%
Survival ([4]; 365 nm light, all-trans-retinal 25 μM, sulforaphane 5.00 μM 24 h): 72.2%
Survival ([4]; 365 nm light, all-trans-retinal 50 μM, sulforaphane 1.25 μM 24 h): 11.7%
Survival ([4]; 365 nm light, all-trans-retinal 50 μM, sulforaphane 2.50 μM 24 h): 15.2%
Survival ([4]; 365 nm light, all-trans-retinal 50 μM, sulforaphane 5.00 μM 24 h): 27.4%
Survival ([4]; 365 nm light, all-trans-retinal 100 μM, sulforaphane 1.25 μM 24 h): 3.4%
Survival ([4]; 365 nm light, all-trans-retinal 100 μM, sulforaphane 2.50 μM 24 h): 5.2%
Survival ([4]; 365 nm light, all-trans-retinal 100 μM, sulforaphane 5.00 μM 24 h): 8.2%
Survival ([4]; 365 nm light, column Control, sulforaphane 1.25 μM 24 h): 100.7%
Survival ([4]; 365 nm light, column Control, sulforaphane 2.50 μM 24 h): 97.4%
Survival ([4]; 365 nm light, column Control, sulforaphane 5.00 μM 24 h): 101.4%
Survival ([4]; in dark, all-trans-retinal 0 μM, sulforaphane 1.25 μM 24 h): 96.6%
Survival ([4]; in dark, all-trans-retinal 0 μM, sulforaphane 2.50 μM 24 h): 99.4%
Survival ([4]; in dark, all-trans-retinal 0 μM, sulforaphane 5.00 μM 24 h): 103.1%
Survival ([4]; in dark, all-trans-retinal 12.5 μM, sulforaphane 1.25 μM 24 h): 96.3%
Survival ([4]; in dark, all-trans-retinal 12.5 μM, sulforaphane 2.50 μM 24 h): 101.5%
Survival ([4]; in dark, all-trans-retinal 12.5 μM, sulforaphane 5.00 μM 24 h): 104.6%
Survival ([4]; in dark, all-trans-retinal 25 μM, sulforaphane 1.25 μM 24 h): 97.7%
Survival ([4]; in dark, all-trans-retinal 25 μM, sulforaphane 2.50 μM 24 h): 98.3%
Survival ([4]; in dark, all-trans-retinal 25 μM, sulforaphane 5.00 μM 24 h): 104.8%
Survival ([4]; in dark, all-trans-retinal 50 μM, sulforaphane 1.25 μM 24 h): 98.4%
Survival ([4]; in dark, all-trans-retinal 50 μM, sulforaphane 2.50 μM 24 h): 99.9%
Survival ([4]; in dark, all-trans-retinal 50 μM, sulforaphane 5.00 μM 24 h): 106.8%
Survival ([4]; in dark, all-trans-retinal 100 μM, sulforaphane 1.25 μM 24 h): 74.7%
Survival ([4]; in dark, all-trans-retinal 100 μM, sulforaphane 2.50 μM 24 h): 75.6%
Survival ([4]; in dark, all-trans-retinal 100 μM, sulforaphane 5.00 μM 24 h): 84.6%
Survival ([4]; in dark, column Control, sulforaphane 1.25 μM 24 h): 96.7%
Survival ([4]; in dark, column Control, sulforaphane 2.50 μM 24 h): 99.5%
Survival ([4]; in dark, column Control, sulforaphane 5.00 μM 24 h): 105.6%
